How the values were obtained:
[1] = Comparative experiment of manufacturing method: solubility of cilostazol in HP-β-CD, dissolving method (1) vs (2); assay type: physicochemical
Protocol: To cilostazol suspension (0.5%, suspended in physiological saline) was added HP-β-CD powder so that the final concentration of the HP-β-CD should be 5-20%, and the mixture was completely dissolved (the procedure is termed as “dissolving method (1)”). On the contrary, to HP-β-CD solution (5-20%, dissolved in physiological saline) was added cilostazol powder (final concentration: 0.5%), and the mixture was completely dissolved (the procedure is termed as “dissolving method (2)”). Both the above solutions were stirred at 25° C. for 24 hours under the shade, then filtrated with membrane filter (pore size: 0.2 μm), and compared about the solubility of the solutions. […] Actually, it needed 10 minutes' stirring for the solution derived from dissolving method (1) to reach the state of the dissolution curve shown in FIG. 1. […] (The above concentrations are shown as weight/volume %.)

[2] = Dissolution experiment of cilostazol nano (nano-CLZ) in HP-β-CD, dissolving method (1) vs (2); assay type: physicochemical
Protocol: CLZ and an excipient were mixed in a ratio of about 80%:20% to give a nano-CLZ powder. To a nano-CLZ suspension (0.5% CLZ suspension: which was prepared by suspending 120 mg of the nano-CLZ powder in 20 mL of purified water), HP-β-CD powder was added and the mixture was dissolved so that the final concentration of HP-β-CD should be 5-20% (dissolving method (1)); while 120 mg of the nano-CLZ powder was added to a HP-β-CD solution (which was prepared by dissolving HP-β-CD in purified water so that the final concentration of HP-β-CD should be 5-20%), and the mixture was dissolved (the final concentration of CLZ is 0.5%) (dissolving method (2)). Both the above solutions were stirred at 25° C. for 24 hours under the shade, then filtrated with membrane filter (pore size: 0.2 μm), and compared about the solubility of the solutions.
Actually, it needed 30 minutes' stirring for the solution derived from dissolving method (1) to reach the state of the dissolution curve shown in FIG. 2. […] (The above concentrations are shown as weight/volume %.)

With `O=C1CCc2cc(OCCCCc3nnnn3C3CCCCC3)ccc2N1` [cilostazol, 6-[4-(1-cyclohexyl-1H-tetrazol-5-yl)butoxy]-3,4-dihydrocarbostyril] the “solubility of cilostazol, dissolving method (1) compared with dissolving method (2)” value ([1]; 0.5% cilostazol, 5-20% HP-β-CD in physiological saline, stirred 25° C. 24 hours under the shade, 0.2 μm filtrate, FIG. 1) was “tended to increase more”, the “stirring needed to reach the state of the dissolution curve” value ([1]; dissolving method (1): HP-β-CD powder added to cilostazol suspension, FIG. 1) was 10 min and the “solubility after 10 minutes stirring relative to the solubility shown in FIG. 1” value ([1]; dissolving method (2): cilostazol powder added to HP-β-CD solution) was “one fifth or less”. For the same compound, the “solubility of cilostazol, dissolving method (1) compared with dissolving method (2)” value ([2]; nano-CLZ powder, 0.5% CLZ, 5-20% HP-β-CD in purified water, stirred 25° C. 24 hours under the shade, 0.2 μm filtrate, FIG. 2) was “tended to increase more”, the “stirring needed to reach the state of the dissolution curve” value ([2]; nano-CLZ, dissolving method (1), FIG. 2) was 30 min and the “solubility after 30 minutes stirring relative to the solubility shown in FIG. 2” value ([2]; nano-CLZ, dissolving method (2)) was “half or less”.
